The source of these data is patent publication US11421001B2, “Template-fixed peptidomimetics” (UNIVERSITAET ZUERICH, priority 2007, dated 2022).

Data set [1] has as its system hematopoietic progenitors (CFU-GM). Description: Stem cell mobilisation, mice model (CFU-GM). The class given is in vivo, mouse. From the text: The aim of the study was to evaluate the ability of the compound of Example 1 and Example 2 to mobilize hematopoietic progenitors from mouse bone marrow to peripheral blood using in-vitro hematopoietic colony assays. In humans, accurate information about progenitor cell mobilization is provided by the colony forming unit granulocyte-monocyte (CFU-GM) assay or by determining the abundance of CD34(+) cells by FACS analysis (see ref. 10 below). In mice, CD34 is not a useful marker for stem cells; instead the CFU-GM is more commonly used (see ref. 11 below).
In order to assess the ability of the compounds of Example 1 and Example 2 to mobilize murine stem cells (CFU-GM) C3H/HeJ female mice (Jackson Laboratory) were injected s.c. with 5 mg/k, of the compounds of Example 1 and of Example 2 and as reference AMD3100 (Broxmeyer, et al, J Exp Med 201, 1307-1318), (currently undergoing Phase III clinical trials) for stem cell mobilisation. Peripheral blood samples from 5 animals per test group were collected at each time point and nucleated cell counts performed as standard assays.

The next data set deals with T1, human CXCR4 (Homo sapiens, UniProt P61073).
T1 construct: expressed in transfected cells; host or cells: mouse pre-B cell line 300-19
Nature of the data set: Ca2+ assay: CXCR4-antagonizing activity. The class given is cell-based. The protocol: 2.2. Ca^2+− Assay: CXCR4-Antagonizing Activity of the Peptides.
Increases in intracellular calcium were monitored using a Flexstation 384 (Molecular Devices, Sunnyvale, Calif.) to assay the peptides for CXCR4 antagonism in a mouse pre-B cell line 300-19 stably transfected with human CXCR4 [see references 1, 2 and 3, below]. The cells were batch loaded with the Calcium 3 Assay kit (Molecular Devices) in assay buffer (Hanks Balanced salt solution, HBSS, 20 mM HEPES, pH 7.4, 0.1% BSA) for 1 h at room temperature and then 200,000 labeled cells were dispensed into black 96 well assays plates (Costar No. 3603). A 20-fold concentrated solution of peptide in assay buffer was added to the cells and the whole plate was centrifuged to settle the cells to the bottom of the wells. Calcium mobilization induced by 10 nM stromal-derived factor-1 (SDF-1) was measured in the Flexstation 384 (excitation, 485 […]) for 90 seconds. A maximal change in fluorescence response above baseline was used to calculate antagonist activity. The data for dose response curves (antagonist concentration versus % maximum response) were fitted to a four parameter logistic equation using SoftmaxPro 4.6 (Molecular Devices), from which IC50% values were calculated.

Data set [2] is described as follows: Cytotoxicity assay (MTT reduction). The class given is cell-based. Particulars: human, HELA cells (Acc57), peptides at 12.5, 25 and 50 μM, trend line, read-out: Cyto-toxicity LC50/GI50 Hela cells. Here is the method: The cytotoxicity of the peptides to HELA cells (Acc57) and COS-7 cells (CRL-1651) was determined using the MTT reduction assay [see ref. 6 and 7, below]. Briefly the method was as follows: HELA cells and COS-7 cells were seeded at 7.0×10^3 and, respectively, 4.5×10^3 cells per well and grown in 96-well microtiter plates for 24 hours at 37° C. at 5% CO2. At this point, time zero (Tz) was determined by MTT reduction (see below). The supernatant of the remaining wells was discarded, and fresh medium and the peptides in serial dilutions of 12.5, 25 and 50 μM were pipetted into the wells. Each peptide concentration was assayed in triplicate. Incubation of the cells was continued for 48 hours at 37° C. at 5% CO2. Wells were then washed once with PBS and subsequently 100 μl MTT reagent (0.5 mg/mL in medium RPMI1640 and, respectively, DMEM) was added to the wells. This was incubated at 37° C. for 2 hours and subsequently the medium was aspirated and 100 μl isopropanol was added to each well. The absorbance at 595 nm of the solubilized product was measured (OD595peptide). For each concentration averages were calculated from triplicates. The percentage of growth was calculated as follows: (OD595peptide−OD595Tz−OD595Empty well)/(OD595Tz−OD595Empty well)×100% and was plotted for each peptide concentration. […]

Data set [3] has as its system human red blood cells (hRBC). Nature of the data set: Hemolysis. The class given is cell-based. Particulars: 100 μM peptide, 20% v/v hRBC, 1 hour at 37° C.; percent hemolysis per method. The protocol: The peptides were tested for their hemolytic activity against human red blood cells (hRBC). Fresh hRBC were washed three times with phosphate buffered saline (PBS) by centrifugation for 10 min at 2000×g. Peptides at a concentration of 100 μM were incubated with 20% v/v hRBC for 1 hour at 37° C. The final erythrocyte concentration was approximately 0.9×10^9 cells per ml. A value of 0% resp. 100% cell lysis was determined by incubation of the hRBC in the presence of PBS alone and respectively 0.1% Triton X-100 in H2O. The samples were centrifuged and the supernatant was 20-fold diluted in PBS buffer and the optical density (OD) of the sample at […] was measured. The 100% lyses value (OD540H2O) gave an OD540 of approximately 1.3-1.8. Percent hemolysis was calculated as follows: (OD540peptide/OD540H2O)×100%.

A short description of data set [4]: Plasma stability, human plasma. The class given is in vitro ADME. The following applies: read-out: Stability human Plasma t1/2.
Data set [5] is described as follows: Plasma stability, rat plasma. The class given is in vitro ADME. The following applies: read-out: Stability rat Plasma t1/2.
Data set [6] in a line: Maximum tolerated dose in mice. The class given is in vivo, mouse. The following applies: mouse, i.v. Here is the method: 3.1. Maximum Tolerated Dose in Mice
a) The compound of Example 1, dispersed in Water for Injection or 0.9% physiological saline), was administered, in the preliminary study, by i.v. injection at dose levels of 35, 50, 70, 85, 100, 150, 250 or 500 mg/kg to groups consisting of one male and one female mouse (Crl:CD1(ICR)). In addition, two groups comprising two male and two female mice received dose levels of 90 and 100 mg/kg, respectively, and the 50 mg/kg dose level was repeated in a group comprising one male and one female.
b) Maximum tolerated dose studies (MTD) carried out with the compound of Example 2 using CD1 mice (3 mice/group) and was performed using i.v, ip and sc. administration.

Data set [7] is described as follows: 14-day intravenous injection toxicity and toxicokinetic study in mice. The class given is in vivo, mouse. Here is the method: 3.2 Repeated Toxicity Studies in Mice
The toxicity and toxicokinetics of the compound of Example 1 was investigated following daily i.v. injection in the mouse for at least 14 days. Groups of 12 male and 12 female Crl:CD1(ICR) mice received dose preparations containing control article (50 mM sodium dihydrogen orthophosphate buffer containing 0.9% w/v sodium chloride) or 8, 24, or 40 mg/kg/day POL6326 at a dose volume of 5 mL/kg. Satellite groups of 24 animals per sex per group were included at each dose level. Assessment of toxicity was based on mortality, clinical signs, body weights, food consumption, ophthalmic examinations, clinical and anatomic pathology, and toxicokinetic evaluations.

The test system of data set [8] is CD34(+) hematopoietic cells. Description: Stem cell mobilisation, monkey model (CD34(+) cells by FACS). The class given is in vivo, cynomolgus monkeys (Macaca fascicularis). The following applies: cynomolgus monkeys, slow bolus i.v. injection. Here is the method:
An assessment of mobilization of peripheral-blood hematopoietic stem cells in cynomolgus monkeys (Macaca fascicularis) was performed. The compound of Example 1 was administered to 4 monkeys (2 male and 2 female) as a slow bolus i.v. injection over 2 minutes and CD34(+) cells were determined by FACS analysis. Toxicokinetic blood sampling was also performed.

Where [9] appears, read: mouse, 8, 24 or 40 mg/kg/day i.v.

A value given as a limit tells only on which side of the number the result lay.

T1 sequence (P61073 whole entry): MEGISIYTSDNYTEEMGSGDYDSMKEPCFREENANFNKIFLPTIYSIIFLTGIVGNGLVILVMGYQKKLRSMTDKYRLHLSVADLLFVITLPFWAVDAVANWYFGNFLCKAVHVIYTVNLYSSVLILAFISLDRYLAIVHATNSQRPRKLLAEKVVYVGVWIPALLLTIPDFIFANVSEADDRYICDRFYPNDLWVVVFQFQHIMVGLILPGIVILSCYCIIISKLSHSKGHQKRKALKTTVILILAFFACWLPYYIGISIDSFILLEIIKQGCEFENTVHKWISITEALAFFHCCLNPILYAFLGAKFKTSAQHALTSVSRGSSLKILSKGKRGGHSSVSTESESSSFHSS

In the case of `c1cc(CN2CCCNCCNCCCNCC2)ccc1CN1CCCNCCNCCCNCC1` [AMD3100, reference compound], in data set [1] (C3H/HeJ mice, 5 mg/kg s.c., compared to control mice), the “effect on CFU-GM blood cell numbers / progenitors over time” value is “increase in the frequency and number of progenitors at 30 and 60 minutes”.

Molecule `C[C@@H]1NC(=O)[C@H](Cc2c[nH]cn2)NC(=O)[C@H](Cc2ccc(O)cc2)NC(=O)[C@@H]2CCCN2C(=O)[C@H]2CCCN2C(=O)[C@H](CCCCN)NC(=O)[C@H](CCC(N)=O)NC(=O)[C@H](Cc2ccc(O)cc2)NC(=O)[C@@H]2CSSC[C@H](NC1=O)C(=O)N[C@@H](CO)C(=O)N[C@@H](C)C(=O)N1CCC[C@@H]1C(=O)N[C@@H](CCN)C(=O)N[C@@H](CCCNC(=N)N)C(=O)N[C@@H](Cc1ccc(O)cc1)C(=O)N2` [Example 1] came in with an IC50 against human CXCR4 of 5.5 nM. In [2], the CC50 at 48 h was > 50000 nM. Moreover, the “Hemo-lysis at 100 μM” value in [3] was 0.6. Moreover, in [4], the half-life at 10 µM is > 4 h. Also, the half-life at 10 µM in data set [5] was > 4 h. Besides, the “acute minimum lethal intravenous dose level” value in [6] is “exceed 90 mg/kg”. In addition, in [7] (both sexes, Crl:CD1(ICR), in vivo, iv, mouse, daily i.v. dosing, 14 days, read-out: NOAEL level), the no observed adverse effect level (NOAEL) at 14 days was 40 mg/kg/day. In data set [7] (females given 40 mg/kg/day), the “white blood cell and absolute lymphocyte counts” value was “mildly higher”. Also, in data set [7] (setting [9]), the clinical chemistry results is on record as “unaffected”; the “effect on body weight, body weight change, food consumption, ophthalmic observations” value is given as “no notable effect”; the “test article-related gross lesions” value was “No test article-related gross lesions were recorded”; the “test article-related microscopic lesions” value is listed as “No test article-related microscopic lesions were observed”. Moreover, in data set [1] (C3H/HeJ mice, 5 mg/kg s.c.), the “return of CFU-GM to baseline levels, time post administration” value was found to be 6 h and the “time of maximal effect on CFU-GM blood cell numbers” value was 120 min. The “dose of peak level increase in release of CFU-GM (dose response)” value in data set [1] (mice, follow up dose response study) was determined as 5 mg/kg. In addition, in [8], the duration of mobilisation result was “transient”, the “mobilization of CD34(+) hematopoietic cells” value was “induced mobilization of CD34(+) hematopoietic cells” and the “time of peak level of mobilization” value is “peak level at two hours”.
